Data as given in ChEMBL document CHEMBL4396952, “Xanthone, benzophenone and bianthrone derivatives from the hypersaline lake-derived fungus Aspergillus wentii” (Bioorg Med Chem, 2019).
Calls of active or inactive are those of the source. The rule behind the calls is not given here.

What was measured:
L5178Y [1] = test: Cytotoxicity against mouse L5178Y cells at 10 ug/ml; format: functional, cell-based
L5178Y [2] = test: Cytotoxicity against mouse L5178Y cells at 100 uM; format: functional, cell-based
L5178Y [3] = test: Cytotoxicity against mouse L5178Y cells at 10 uM; format: functional, cell-based
[4] = system: Mycobacterium tuberculosis; test: Antitubercular activity against Mycobacterium tuberculosis H37Rv; format: functional, organism-based
A2780S [5] = test: Cytotoxicity against human A2780S cells at 10 ug/ml; format: functional, cell-based
A2780S [6] = test: Cytotoxicity against human A2780S cells at 100 uM; format: functional, cell-based
A2780S [7] = test: Cytotoxicity against human A2780S cells at 10 uM; format: functional, cell-based
Staphylococcus aureus = test: Antibacterial activity against Staphylococcus aureus ATCC 29213; format: functional, organism-based
Escherichia coli = test: Antibacterial activity against Escherichia coli; format: functional, organism-based
Pseudomonas aeruginosa = test: Antibacterial activity against Pseudomonas aeruginosa; format: functional, organism-based
Enterococcus faecium = test: Antibacterial activity against Enterococcus faecium; format: functional, organism-based
Klebsiella pneumoniae = test: Antibacterial activity against Klebsiella pneumoniae; format: functional, organism-based
Klebsiella aerogenes = test: Antibacterial activity against Enterobacter aerogenes; format: functional, organism-based
Acinetobacter baumannii = test: Antibacterial activity against Acinetobacter baumannii; format: functional, organism-based
[8] = Stability of the compound by HPLC analysis; format: physicochemical

Row | Compound | Activity (L5178Y [1]) | Activity (L5178Y [2]) | Activity (L5178Y [3]) | Activity [4] | Activity (A2780S [5]) | Activity (A2780S [6]) | Activity (A2780S [7]) | Activity (Staphylococcus aureus) | Activity (Escherichia coli) | Activity (Pseudomonas aeruginosa) | Activity (Enterococcus faecium) | Activity (Klebsiella pneumoniae) | Activity (Klebsiella aerogenes) | Activity (Acinetobacter baumannii) | Stability [8]
1 | COC(=O)c1cc(C)c(C(=O)OC[C@@H](O)CO)c2oc3cc(O)cc(O)c3c(=O)c12 | inactive | inactive | inactive | inactive | – | – | – | – | – | – | – | – | – | – | –
2 | Cc1cc(O)c2c(c1)C(=O)c1cc(O)cc(O)c1C2=O | inactive | inactive | inactive | inactive | inactive | inactive | inactive | inactive | inactive | inactive | inactive | inactive | inactive | inactive | –
3 | COc1cc(C(=O)O)c2c(=O)c3c(O)cc(C)cc3oc2c1 | inactive | inactive | inactive | inactive | inactive | inactive | inactive | inactive | inactive | inactive | inactive | inactive | inactive | inactive | –
4 | Cc1cc(O)cc(O)c1-c1cc(=O)c2c(O)cc(O)cc2o1 | inactive | inactive | inactive | inactive | inactive | inactive | inactive | inactive | inactive | inactive | inactive | inactive | inactive | inactive | –
5 | COc1cc(OC)c2c(c1)[C@H]([C@H]1c3cc(C)cc(O)c3C(=O)c3c(OC)cc(O)cc31)c1cc(C)cc(O)c1C2=O | – | – | – | – | – | – | – | – | – | – | – | – | – | – | Unstable
6 | COc1cc(O)c2c(c1)C(C1c3cc(C)cc(O)c3C(=O)c3c(O)cc(OC)cc31)c1cc(C)cc(O)c1C2=O (stereo unspecified) | – | – | – | – | – | – | – | – | – | – | – | – | – | – | Unstable
7 | COC(=O)c1cc(O)cc(O)c1C(=O)c1c(O)cc(C)cc1O | inactive | inactive | inactive | inactive | inactive | inactive | inactive | inactive | inactive | inactive | inactive | inactive | inactive | inactive | –
8 | COc1cc(OC)c2c(c1)C(C1c3cc(O)cc(O)c3C(=O)c3c1cc(C)c(C(=O)OC[C@@H](O)CO)c3O)c1cc(C)cc(O)c1C2=O (stereo partly specified) | – | – | – | – | – | – | – | – | – | – | – | – | – | – | Unstable
9 | COc1cc(O)cc2c1C(=O)c1c(O)cc(C)cc1C2=O | inactive | inactive | inactive | inactive | inactive | inactive | inactive | inactive | inactive | inactive | inactive | inactive | inactive | inactive | –
10 | Cc1cc2c(c(O)c1C(=O)OC[C@@H](O)CO)C(=O)c1c(O)cc(O)cc1C2=O | inactive | inactive | inactive | inactive | inactive | inactive | inactive | inactive | inactive | inactive | inactive | inactive | inactive | inactive | –
11 | COc1cc(O)c2c(c1)[C@@H]([C@@H]1c3cc(O)cc(O)c3C(=O)c3c1cc(C)c(C(=O)OC[C@@H](O)CO)c3O)c1cc(C)cc(O)c1C2=O | – | – | – | – | – | – | – | – | – | – | – | – | – | – | Unstable
12 | COc1cc(OC)c2c(c1)[C@@H]([C@@H]1c3cc(C)cc(O)c3C(=O)c3c(OC)cc(O)cc31)c1cc(C)cc(O)c1C2=O | – | – | – | – | – | – | – | – | – | – | – | – | – | – | Unstable
13 | COC(=O)c1cc(OC)cc(OC)c1C(=O)c1c(O)cc(C)cc1O | inactive | inactive | inactive | inactive | inactive | inactive | inactive | inactive | inactive | inactive | inactive | inactive | inactive | inactive | –
14 | Cc1cc(O)c2c(=O)c3c(C(=O)O)cc(O)cc3oc2c1 | inactive | inactive | inactive | inactive | inactive | inactive | inactive | inactive | inactive | inactive | inactive | inactive | inactive | inactive | –
15 | Cc1cc(=O)c2c(C)cc3cc(O)cc(O)c3c2o1 | inactive | inactive | inactive | inactive | inactive | inactive | inactive | inactive | inactive | inactive | inactive | inactive | inactive | inactive | –
16 | COc1cc(OC)c2c(c1)C(C1c3cc(C)cc(O)c3C(=O)c3c(OC)cc(OC)cc31)c1cc(C)cc(O)c1C2=O (stereo unspecified) | – | – | – | – | – | – | – | – | – | – | – | – | – | – | Unstable
17 | COc1cc(O)c2c(c1)[C@@H]([C@H]1c3cc(O)cc(O)c3C(=O)c3c1cc(C)c(C(=O)OC[C@@H](O)CO)c3O)c1cc(C)cc(O)c1C2=O | – | – | – | – | – | – | – | – | – | – | – | – | – | – | Unstable
18 | Cc1cc2cc(O)cc(O)c2c2oc(=O)cc(O)c12 | inactive | inactive | inactive | inactive | inactive | inactive | inactive | inactive | inactive | inactive | inactive | inactive | inactive | inactive | –
19 | COC(=O)c1cc(C)c(C(=O)OC[C@@H](O)CO)c(OC)c1C(=O)c1c(C)cc(O)cc1O | inactive | inactive | inactive | inactive | – | – | – | – | – | – | – | – | – | – | –
20 | COc1cc(OC)c2c(c1)C(=O)c1cc(C)cc(O)c1C2=O | inactive | inactive | inactive | inactive | inactive | inactive | inactive | – | – | – | – | – | – | – | –
21 | COC(=O)c1cc(O)cc(OC)c1C(=O)c1c(O)cc(C)cc1O | inactive | inactive | inactive | inactive | inactive | inactive | inactive | inactive | inactive | inactive | inactive | inactive | inactive | inactive | –
